According to PubChem BioAssay AID248 (DTP/NCI, 2004):
Several values for one entry are separate records, joined by “and”; a condition that tells them apart may be missing. Equal values may be shown once. Toxic doses and inconclusive results are not listed.

Test system: L1210 leukemia ip in BDF1 mice, survival T/C
Assay: NCI In Vivo Anticancer Drug Screen. Data for tumor model L1210 Leukemia (intraperitoneal) in B6D2F1 (BDF1) mice
Settings: endpoint: mean survival time, higher = longer survival
Method in brief: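 Ratio derived from survival: compound-dosed mice over vehicle-dosed mice, all bearing a transplantable tumor.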

[1] = dose: 100.0 mg/kg/injection, schedule: Q01DX009 (ip), vehicle: saline with Tween-80
[2] = dose: 100.0 mg/kg/injection, schedule: Q04DX003 (ip), vehicle: saline with Tween-80
[3] = dose: 200.0 mg/kg/injection, schedule: Q01DX009 (ip), vehicle: saline with Tween-80
[4] = dose: 200.0 mg/kg/injection, schedule: Q04DX003 (ip), vehicle: saline with Tween-80
[5] = dose: 400.0 mg/kg/injection, schedule: Q04DX003 (ip), vehicle: saline with Tween-80
[6] = dose: 100.0 mg/kg/injection, schedule: Q01DX009 (ip), vehicle: Klucel (hydroxypropylcellulose) (HPC)
[7] = dose: 100.0 mg/kg/injection, schedule: Q04DX003 (ip), vehicle: Klucel (hydroxypropylcellulose) (HPC)
[8] = dose: 200.0 mg/kg/injection, schedule: Q04DX003 (ip), vehicle: Klucel (hydroxypropylcellulose) (HPC)
[9] = dose: 400.0 mg/kg/injection, schedule: Q01DX009 (ip), vehicle: Klucel (hydroxypropylcellulose) (HPC)
[10] = dose: 400.0 mg/kg/injection, schedule: Q04DX003 (ip), vehicle: Klucel (hydroxypropylcellulose) (HPC)
[11] = dose: 6.25 mg/kg/injection, schedule: Q01DX009 (ip), vehicle: saline with Tween-80
[12] = dose: 12.5 mg/kg/injection, schedule: Q01DX009 (ip), vehicle: saline with Tween-80
[13] = dose: 25.0 mg/kg/injection, schedule: Q01DX009 (ip), vehicle: saline with Tween-80
[14] = dose: 50.0 mg/kg/injection, schedule: Q01DX009 (ip), vehicle: Klucel (hydroxypropylcellulose) (HPC)
[15] = dose: 200.0 mg/kg/injection, schedule: Q01DX009 (ip), vehicle: Klucel (hydroxypropylcellulose) (HPC)

How did the T/C (dose: 50.0 mg/kg/injection, schedule: Q01DX001 (ip), vehicle: saline with Tween-80) turn out when CCCCCCCCCCCC(=O)NC(=S)Nc1ccc(C)c(C)c1 was run?
Its T/C is 86 % of control.

What about the T/C (dose: 100.0 mg/kg/injection, schedule: Q01DX001 (ip), vehicle: saline with Tween-80) of the same compound?
The T/C was 91 % of control.

What about the T/C [1] of the same compound?
The T/C was 90 % of control and 91 % of control.

And the T/C (dose: 100.0 mg/kg/injection, schedule: Q04DX002 (ip), vehicle: saline with Tween-80)?
The T/C was 103 % of control and 91 % of control.

And the T/C [2]?
The T/C was 93 % of control.

What about the T/C [3] of the same compound?
The T/C was 103 % of control and 105 % of control.

And the T/C (dose: 200.0 mg/kg/injection, schedule: Q04DX002 (ip), vehicle: saline with Tween-80)?
The T/C was 94 % of control and 88 % of control.

And the T/C [4]?
The T/C was 90 % of control.

What about the T/C (dose: 400.0 mg/kg/injection, schedule: Q04DX002 (ip), vehicle: saline with Tween-80) of the same compound?
Its T/C is 94 % of control and 91 % of control.

What about the T/C [5] of the same compound?
Its T/C is 88 % of control.

Which T/C [6] does the source give for Cc1ccc(N2C(=O)CC(Sc3ccccc3N)C2=O)cc1Cl (centres undefined) here?
Its T/C is 88 % of control.

What about the T/C [1] of the same compound?
The T/C was 88 % of control.

And the T/C [7]?
Its T/C is 93 % of control.

What about the T/C [2] of the same compound?
The T/C was 86 % of control and 89 % of control.

What about the T/C [3] of the same compound?
The T/C was 96 % of control.

And the T/C [8]?
The T/C was 93 % of control.

And the T/C [4]?
Its T/C is 87 % of control and 91 % of control.

And the T/C [9]?
The T/C was 90 % of control.

And the T/C (dose: 400.0 mg/kg/injection, schedule: Q01DX009 (ip), vehicle: saline with Tween-80)?
The T/C was 95 % of control.

And the T/C [10]?
The T/C was 94 % of control.

And the T/C [5]?
The T/C was 86 % of control and 87 % of control.

How did the T/C (dose: 100.0 mg/kg/injection, schedule: Q04DX002 (ip), vehicle: other) turn out when CC12CC(O)C(C=C1c1ccccc1)C2(C)C (centres undefined) was run?
Its T/C is 86 % of control.

And the T/C (dose: 200.0 mg/kg/injection, schedule: Q04DX002 (ip), vehicle: other)?
The T/C was 93 % of control.

And the T/C (dose: 400.0 mg/kg/injection, schedule: Q04DX002 (ip), vehicle: other)?
Its T/C is 90 % of control.

With CCN(c1ccccc1)P(I)(c1ccccc1)(c1ccccc1)c1ccccc1 as the compound, how does the T/C (dose: 1.17 mg/kg/injection, schedule: Q01DX001 (ip), vehicle: other) read?
Its T/C is 107 % of control.

And the T/C (dose: 2.34 mg/kg/injection, schedule: Q01DX001 (ip), vehicle: other)?
Its T/C is 114 % of control.

What about the T/C (dose: 4.69 mg/kg/injection, schedule: Q01DX001 (ip), vehicle: other) of the same compound?
The T/C was 107 % of control.

What does the source list for c1ccc(CC(Cc2ccccc2)NC2=NCCO2)cc1?
T/C [11]: 106 % of control; T/C (dose: 6.25 mg/kg/injection, schedule: Q04DX003 (ip), vehicle: saline with Tween-80): 107 % of control; T/C [12]: 94 % of control; T/C (dose: 12.5 mg/kg/injection, schedule: Q04DX003 (ip), vehicle: saline with Tween-80): 106 % of control; T/C [13]: 89 % of control; T/C (dose: 25.0 mg/kg/injection, schedule: Q04DX003 (ip), vehicle: saline with Tween-80): 102 % of control

What does the source list for C#CCCCCC#C?
T/C [14]: 98 % of control; T/C [6]: 106 % of control; T/C [7]: 98 % of control; T/C [15]: 97 % of control; T/C [8]: 91 % of control; T/C [10]: 86 % of control

O=C1C2C3CCC(CC3)C2C(O)C2C3CCC(C3)C12 (centres undefined) was tested. Which T/C (dose: 50.0 mg/kg/injection, schedule: Q01DX009 (ip), vehicle: saline with Tween-80) did it give?
Its T/C is 93 % of control.

And the T/C [1]?
Its T/C is 96 % of control.

What about the T/C [3] of the same compound?
Its T/C is 93 % of control.

For COc1cc(/C=N\N=C(/C)c2ccc(F)cc2)cc(OC)c1OC, which T/C [6] is on record?
The T/C was 87 % of control.

And the T/C [15]?
Its T/C is 86 % of control.

What about the T/C [9] of the same compound?
The T/C was 89 % of control.

For CCNP(=O)(CCl)NC12CC3CC(CC(C3)C1)C2 (centres undefined), which T/C [14] is on record?
The T/C was 91 % of control.

What about the T/C [6] of the same compound?
The T/C was 93 % of control.

And the T/C [15]?
Its T/C is 93 % of control.

Which results are given for C[CH2][Sn]1([CH2]C)[O]OC(c2ccccc2)[O]1 (centres undefined)?
T/C (dose: 0.78 mg/kg/injection, schedule: Q01DX009 (ip), vehicle: saline with Tween-80): 101 % of control and 102 % of control; T/C (dose: 1.56 mg/kg/injection, schedule: Q01DX009 (ip), vehicle: saline with Tween-80): 101 % of control and 110 % of control; T/C (dose: 3.12 mg/kg/injection, schedule: Q01DX009 (ip), vehicle: saline with Tween-80): 105 % of control and 122 % of control; T/C [11]: 100 % of control; T/C (dose: 6.25 mg/kg/injection, schedule: Q04DX002 (ip), vehicle: saline with Tween-80): 94 % of control; T/C [12]: 114 % of control and 121 % of control; T/C (dose: 12.5 mg/kg/injection, schedule: Q04DX002 (ip), vehicle: saline with Tween-80): 96 % of control; T/C [13]: 91 % of control

How did the T/C (dose: 100.0 mg/kg/injection, schedule: Q01DX009 (ip), vehicle: saline) turn out when C=COCCC(C(=O)OCC)C(=O)OCC was run?
The T/C was 100 % of control.

And the T/C (dose: 200.0 mg/kg/injection, schedule: Q01DX009 (ip), vehicle: saline)?
The T/C was 96 % of control.

What about the T/C (dose: 400.0 mg/kg/injection, schedule: Q01DX009 (ip), vehicle: saline) of the same compound?
Its T/C is 100 % of control.

What does the source list for CCC(=O)Nc1ccc(Cl)c(Cl)c1?
T/C [2]: 95 % of control; T/C [4]: 93 % of control; T/C [5]: 92 % of control

COc1cc(C)c2cccc(OC)c2n1 was tested. Which T/C [6] did it give?
Its T/C is 114 % of control.

And the T/C [7]?
The T/C was 105 % of control.

What about the T/C [15] of the same compound?
The T/C was 108 % of control.

What about the T/C [8] of the same compound?
The T/C was 90 % of control.

And the T/C [9]?
Its T/C is 98 % of control.

And the T/C [10]?
The T/C was 94 % of control.

How did the T/C (dose: 75.0 mg/kg/injection, schedule: Q01DX001 (ip), vehicle: saline) turn out when CCOC(=O)NC(CI)(c1ccccc1)c1ccccc1 was run?
Its T/C is 98 % of control.

And the T/C (dose: 150.0 mg/kg/injection, schedule: Q01DX001 (ip), vehicle: saline)?
Its T/C is 97 % of control.

And the T/C (dose: 300.0 mg/kg/injection, schedule: Q01DX001 (ip), vehicle: saline)?
Its T/C is 92 % of control.

O=C(c1cccs1)C1Cc2ccccc2C1=O (centres undefined) was tested. Which T/C (dose: 100.0 mg/kg/injection, schedule: Q01DX009 (ip), vehicle: saline sonified) did it give?
Its T/C is 98 % of control.

And the T/C (dose: 100.0 mg/kg/injection, schedule: Q04DX003 (ip), vehicle: saline sonified)?
The T/C was 94 % of control.

And the T/C (dose: 200.0 mg/kg/injection, schedule: Q01DX009 (ip), vehicle: saline sonified)?
The T/C was 95 % of control.

What about the T/C (dose: 200.0 mg/kg/injection, schedule: Q04DX003 (ip), vehicle: saline sonified) of the same compound?
The T/C was 92 % of control.

What about the T/C (dose: 400.0 mg/kg/injection, schedule: Q01DX009 (ip), vehicle: saline sonified) of the same compound?
The T/C was 101 % of control.

And the T/C (dose: 400.0 mg/kg/injection, schedule: Q04DX003 (ip), vehicle: saline sonified)?
The T/C was 94 % of control.

With Cc1nnc2c3ccccc3cnn12 as the compound, how does the T/C (dose: 75.0 mg/kg/injection, schedule: Q01DX001 (ip), vehicle: carboxymethylcellulose (CMC)) read?
The T/C was 98 % of control.

And the T/C (dose: 150.0 mg/kg/injection, schedule: Q01DX001 (ip), vehicle: carboxymethylcellulose (CMC))?
Its T/C is 97 % of control.

And the T/C (dose: 300.0 mg/kg/injection, schedule: Q01DX001 (ip), vehicle: carboxymethylcellulose (CMC))?
Its T/C is 98 % of control.

What does the source list for N#C/C([SH2+])=C(/[SH2+])C#N.N#C/C([SH2+])=C(/[SH2+])C#N.N#C/C([SH2+])=C(/[SH2+])C#N.N#C/C([SH2+])=C(/[SH2+])C#N.[Co+3].[Co+3].c1ccc([P+](c2ccccc2)(c2ccccc2)c2ccccc2)cc1?
T/C (dose: 50.0 mg/kg/injection, schedule: Q04DX003 (ip), vehicle: saline): 105 % of control; T/C (dose: 100.0 mg/kg/injection, schedule: Q01DX001 (ip), vehicle: saline): 105 % of control; T/C (dose: 100.0 mg/kg/injection, schedule: Q04DX003 (ip), vehicle: saline): 97 % of control; T/C (dose: 200.0 mg/kg/injection, schedule: Q01DX001 (ip), vehicle: saline): 109 % of control; T/C (dose: 200.0 mg/kg/injection, schedule: Q04DX003 (ip), vehicle: saline): 108 % of control

Which results are given for CC1CN1C(=O)OCCOC(=O)N1CC1C (centres undefined)?
T/C (dose: 200.0 mg/kg/injection, schedule: Q01DX Z (ip), vehicle: saline): 108 % of control; T/C (dose: 444.0 mg/kg/injection, schedule: Q01DX009 (ip), vehicle: saline): 104 % of control; T/C (dose: 450.0 mg/kg/injection, schedule: Q01DX Z (ip), vehicle: saline): 188 % of control; T/C (dose: 666.0 mg/kg/injection, schedule: Q01DX009 (ip), vehicle: saline): 107 % of control; T/C (dose: 675.0 mg/kg/injection, schedule: Q01DX Z (ip), vehicle: saline): 195 % of control; T/C (dose: 750.0 mg/kg/injection, schedule: Q01DX001 (ip), vehicle: saline): 117 % of control; T/C (dose: 1000.0 mg/kg/injection, schedule: Q01DX009 (ip), vehicle: saline): 115 % of control; T/C (dose: 1500.0 mg/kg/injection, schedule: Q01DX001 (ip), vehicle: saline): 106 % of control; T/C (dose: 1500.0 mg/kg/injection, schedule: Q01DX009 (ip), vehicle: saline): 96 % of control
